The term IC50 denotes the midpoint of a concentration-inhibition curve. Higher therefore signals weaker potency. In general, pIC50 refers to the IC50 on a negative log10 scale, so that one unit is a factor of ten. A higher pIC50 goes with a low IC50. As usually defined, the inhibition is how much of the control response was suppressed.

In experiment [1] the test system is A549. Description: Cytotoxicity against human A549 cells after 24 hrs by MTT assay. It is filed as functional, cell-based. Conditions: A549, 24 h. Background: Tetrazolium dyes change colour on reduction, which living cells bring about.
In experiment [2] the test system is C6. Description: Selectivity index, ratio of IC50 for mouse NIH/3T3 cells to IC50 for rat C6 cells. It is filed as functional.
Experiment [3] relates to A549. In words: Selectivity index, ratio of IC50 for mouse NIH/3T3 cells to IC50 for human A549 cells. It counts as functional.
Experiment [4] in a line: Cytotoxicity against mouse NIH/3T3 cells after 24 hrs by MTT assay. It is filed as cell-based. As to conditions: NIH3T3, 24 h.
Experiment [5] has as its system C6. In words: Cytotoxicity against rat C6 cells after 24 hrs by MTT assay. It counts as functional, cell-based. Conditions: C6, 24 h.
Experiment [6] concerns A549. In words: Antiproliferative activity against human A549 cells assessed as inhibition of DNA synthesis after 24 hrs by BrdU incorporation based ELISA. It is filed as functional, cell-based. In general terms: Incorporation of labelled thymidine or its analogues reports DNA synthesis.
The target of the next experiment is Acetylcholinesterase (Electrophorus electricus, UniProt O42275). Description: Inhibition of electric eel AChE using acetylthiocholine iodide as substrate at by Ellman spectrophotometric method. In general terms: DTNB colorimetry detects thiols as they appear.
In experiment [7] the test system is C6. Description: Antiproliferative activity against rat C6 cells assessed as inhibition of DNA synthesis after 24 hrs by BrdU incorporation based ELISA. It is filed as functional, cell-based.
Experiment [8] is described as follows: Cytotoxicity against rat 5RP7 cells after 24 hrs by MTT assay. It counts as functional, cell-based. Conditions: 5RP7, 24 h.
The target in experiment [9] is T1, Cholinesterase (Homo sapiens, UniProt P06276). In words: Inhibition of BuChE (unknown origin) using butyrylthiocholine iodide as substrate at 80 ug/ml by Ellman spectrophotometric method.
Experiment [10] has as its target T1, Cholinesterase. Description: Inhibition of BuChE (unknown origin) using butyrylthiocholine iodide as substrate by Ellman spectrophotometric method.

pIC50: −log10 of the molar value. Values after ≈ are worked out from the molar mass of the structure shown. Active and inactive are the calls of the source. The calls are words filed in the database; no cut-off is given here.

T1 sequence (P06276 whole entry): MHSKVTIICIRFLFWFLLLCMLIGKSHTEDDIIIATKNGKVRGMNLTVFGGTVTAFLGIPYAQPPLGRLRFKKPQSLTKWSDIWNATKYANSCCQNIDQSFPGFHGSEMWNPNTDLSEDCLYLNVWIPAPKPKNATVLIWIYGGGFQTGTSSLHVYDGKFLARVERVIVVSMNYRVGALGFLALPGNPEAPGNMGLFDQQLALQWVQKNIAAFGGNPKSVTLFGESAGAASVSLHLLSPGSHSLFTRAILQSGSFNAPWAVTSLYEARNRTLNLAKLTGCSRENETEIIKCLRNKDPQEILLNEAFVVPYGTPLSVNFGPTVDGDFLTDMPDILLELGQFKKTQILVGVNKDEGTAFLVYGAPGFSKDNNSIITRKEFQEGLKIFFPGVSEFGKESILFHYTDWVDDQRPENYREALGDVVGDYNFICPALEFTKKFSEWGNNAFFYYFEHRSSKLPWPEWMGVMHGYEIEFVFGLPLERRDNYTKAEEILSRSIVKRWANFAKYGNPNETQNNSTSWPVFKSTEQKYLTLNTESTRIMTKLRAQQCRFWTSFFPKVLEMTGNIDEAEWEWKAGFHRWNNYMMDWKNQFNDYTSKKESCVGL
Chain of Acetylcholinesterase (O42275 whole entry): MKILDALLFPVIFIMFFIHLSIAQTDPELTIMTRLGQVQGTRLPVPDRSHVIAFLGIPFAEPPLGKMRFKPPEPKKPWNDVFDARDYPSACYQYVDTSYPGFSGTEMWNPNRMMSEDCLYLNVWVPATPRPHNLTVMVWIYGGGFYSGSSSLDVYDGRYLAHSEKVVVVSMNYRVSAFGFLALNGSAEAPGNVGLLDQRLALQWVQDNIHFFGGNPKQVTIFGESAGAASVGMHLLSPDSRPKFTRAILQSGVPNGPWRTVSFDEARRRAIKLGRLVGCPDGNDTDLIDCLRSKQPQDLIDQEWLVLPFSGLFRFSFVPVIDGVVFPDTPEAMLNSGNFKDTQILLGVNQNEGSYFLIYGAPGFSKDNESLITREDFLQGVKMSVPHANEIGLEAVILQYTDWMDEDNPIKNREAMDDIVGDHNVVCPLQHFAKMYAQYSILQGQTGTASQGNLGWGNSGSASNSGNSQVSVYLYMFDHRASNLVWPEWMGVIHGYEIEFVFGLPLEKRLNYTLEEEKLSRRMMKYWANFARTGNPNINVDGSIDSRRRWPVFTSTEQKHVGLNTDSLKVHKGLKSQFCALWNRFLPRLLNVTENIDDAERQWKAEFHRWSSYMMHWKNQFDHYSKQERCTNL

`COc1cc(-c2ccc(Nc3nc(-c4ccc(Br)cc4)cs3)c(OC)c2)ccc1Nc1nc(-c2ccc(Br)cc2)cs1`: the concentration for half-maximal inhibition (IC50) with A549 [1] turned out to be 37.3 µg/mL (≈ 51.8 µM); in [4] it was 132 µg/mL (≈ 183 µM); in the experiment with C6 [5], 11.3 µg/mL (≈ 15.7 µM); in experiment [8], 68.3 µg/mL (≈ 94.8 µM). In addition, the “Ratio IC50” value in the experiment on C6 [2] was 11.65; in the experiment with A549 [3], 3.53. Further, in the experiment with A549 [6], the outcome was Active. The same compound gave a pIC50 against Acetylcholinesterase of 4.80. In the experiment on C6 [7], the outcome was inactive. In addition, at Cholinesterase [9], the inhibition entry is “inactive”.
As for `COc1cc(-c2ccc(Nc3nc(-c4ccc(Cl)c(Cl)c4)cs3)c(OC)c2)ccc1Nc1nc(-c2ccc(Cl)c(Cl)c2)cs1`, the IC50 is 147 µg/mL (≈ 209 µM) in the experiment on A549 [1], over 200 µg/mL in experiment [4], 90 µg/mL (≈ 128 µM) in the experiment on C6 [5] and 207 µg/mL (≈ 295 µM) in experiment [8]. Moreover, the negative logarithm of the IC50 (pIC50) at Acetylcholinesterase was 4.79; on Cholinesterase [10], 3.96. In addition, on Cholinesterase [9], the inhibition amounted to 53.5%.
On to `COc1cc(-c2ccc(Nc3nc(-c4cc(Cl)ccc4Cl)cs3)c(OC)c2)ccc1Nc1nc(-c2cc(Cl)ccc2Cl)cs1`, for which the IC50 is 102 µg/mL (≈ 145 µM) in the experiment with A549 [1], 162 µg/mL (≈ 231 µM) in experiment [4], 38.3 µg/mL (≈ 54.7 µM) with C6 [5] and 54.3 µg/mL (≈ 77.6 µM) in [8]. Further, the pIC50 against Acetylcholinesterase is 4.01; at Cholinesterase [10], under 3.94. Also, the inhibition at Cholinesterase [9] was 36.2%.
With `COc1ccc(-c2csc(Nc3ccc(-c4ccc(Nc5nc(-c6ccc(OC)cc6)cs5)c(OC)c4)cc3OC)n2)cc1`, the IC50 in the experiment on A549 [1] was 58.3 µg/mL (≈ 93.6 µM); in experiment [4], 98.3 µg/mL (≈ 158 µM); with C6 [5] it was 28.7 µg/mL (≈ 46.1 µM); in [8], 13.3 µg/mL (≈ 21.4 µM). Besides, the result with A549 [6] was Active. Moreover, the pIC50 against Acetylcholinesterase was 4.91; on Cholinesterase [10] it was 3.97. Moreover, in the experiment on C6 [7], the result was inactive. Further, on Cholinesterase [9], the inhibition was 74.5%.
For `COc1cc(-c2ccc(Nc3nc(-c4ccc([N+](=O)[O-])cc4)cs3)c(OC)c2)ccc1Nc1nc(-c2ccc([N+](=O)[O-])cc2)cs1`, the IC50 was 82.3 µg/mL (≈ 126 µM) with A549 [1], 147 µg/mL (≈ 225 µM) in experiment [4], 33.3 µg/mL (≈ 51 µM) in the experiment on C6 [5] and 5.83 µg/mL (≈ 8.93 µM) in experiment [8]. Also, the result in the experiment on A549 [6] was Active. Besides, the pIC50 on Acetylcholinesterase is 4.80; against Cholinesterase [10], under 3.91. The outcome in the experiment with C6 [7] was inactive. Besides, on Cholinesterase [9], the inhibition is 27.9%.
In the case of `O=C1c2c(O)ccc(O)c2C(=O)c2c(NCCNCCO)ccc(NCCNCCO)c21` [MITOXANTRONE], the values for the half-inhibitory concentration (IC50) (with A549 [1]; in experiment [8]) were 15.7 µg/mL (≈ 35.3 µM) and 0.73 µg/mL (≈ 1.64 µM), respectively.
Take `COc1cc(-c2ccc(Nc3nc(-c4ccc(Cl)cc4Cl)cs3)c(OC)c2)ccc1Nc1nc(-c2ccc(Cl)cc2Cl)cs1`: the IC50 in the experiment with A549 [1] was 133 µg/mL (≈ 190 µM); in [4], over 200 µg/mL; in the experiment with C6 [5], 80 µg/mL (≈ 114 µM); in experiment [8], over 500 µg/mL. For the same compound, the pIC50 was 5.08 against Acetylcholinesterase and 4.32 on Cholinesterase [10]. This compound had an inhibition against Cholinesterase [9] of 84.4%.
Regarding `COc1ccc(OC)c(-c2csc(Nc3ccc(-c4ccc(Nc5nc(-c6cc(OC)ccc6OC)cs5)c(OC)c4)cc3OC)n2)c1`, the concentration for half-maximal inhibition (IC50) with A549 [1] amounted to 125 µg/mL (≈ 183 µM); in experiment [4] it was 170 µg/mL (≈ 249 µM); with C6 [5], 103 µg/mL (≈ 151 µM); in [8] it was 12.3 µg/mL (≈ 18.1 µM). The pIC50 against Acetylcholinesterase is 4.25; on Cholinesterase [10] it was 4.24. Also, the inhibition against Cholinesterase [9] amounted to 56.9%.
On to `COc1cc(-c2ccc(NC(N)=S)c(OC)c2)ccc1NC(N)=S`, for which the IC50 came to 178 µg/mL (≈ 492 µM) in the experiment with A549 [1], 195 µg/mL (≈ 538 µM) in [4], 165 µg/mL (≈ 455 µM) in the experiment with C6 [5] and 25.3 µg/mL (≈ 69.9 µM) in experiment [8]. The negative-log IC50 (pIC50) is 4.24 at Acetylcholinesterase and under 3.66 against Cholinesterase [10]. Moreover, the inhibition against Cholinesterase [9] came out at 26.7%.
As to `COc1cc(-c2ccc(Nc3nc(-c4ccc(C)cc4)cs3)c(OC)c2)ccc1Nc1nc(-c2ccc(C)cc2)cs1`, the IC50 in the experiment on A549 [1] is 98.3 µg/mL (≈ 166 µM); in experiment [4] it was 153 µg/mL (≈ 260 µM); in the experiment on C6 [5] it was 21 µg/mL (≈ 35.5 µM); in experiment [8], over 500 µg/mL. In addition, the outcome in the experiment on A549 [6] was Active. Besides, the negative-log IC50 (pIC50) at Acetylcholinesterase was 4.34; against Cholinesterase [10] it was under 3.87. Moreover, in the experiment on C6 [7], the outcome was inactive. This compound also returned an inhibition against Cholinesterase [9] of 40.9%.
`COc1cc(-c2ccc(Nc3nc(-c4ccc(Cl)cc4)cs3)c(OC)c2)ccc1Nc1nc(-c2ccc(Cl)cc2)cs1`: the IC50 with A549 [1] was found to be 105 µg/mL (≈ 166 µM); in [4], 112 µg/mL (≈ 177 µM); in the experiment with C6 [5] it was 147 µg/mL (≈ 232 µM); in experiment [8] it was 207 µg/mL (≈ 327 µM). Moreover, the pIC50 on Acetylcholinesterase was 4.37; on Cholinesterase [10], under 3.90. This compound also had an inhibition at Cholinesterase [9] of 39.1%.
With `COc1cc(-c2ccc(Nc3nc(-c4ccccc4)cs3)c(OC)c2)ccc1Nc1nc(-c2ccccc2)cs1`, the IC50 with A549 [1] was 103 µg/mL (≈ 184 µM); in experiment [4], 112 µg/mL (≈ 198 µM); in the experiment on C6 [5], 49.3 µg/mL (≈ 87.6 µM); in experiment [8] it was 28 µg/mL (≈ 49.8 µM). On Acetylcholinesterase, this compound gave a pIC50 of 4.78. Besides, the inhibition result at Cholinesterase [9] was “inactive”.

(Values after ChEMBL document CHEMBL3751820, “Synthesis and evaluation of bis-thiazole derivatives as new anticancer agents” (Eur J Med Chem, 2016).)
